The record followed here is patent publication US12161722B2, “Bifunctional heterocyclic compound having BTK degradation function via ubiquitin proteasome pathway, and use thereof” (KOREA RESEARCH INSTITUTE OF CHEMICAL TECHNOLOGY, priority 2021, dated 2024).

One may read the DC50 as the concentration giving 50% degradation.

T1 sequence (Q06187 whole entry): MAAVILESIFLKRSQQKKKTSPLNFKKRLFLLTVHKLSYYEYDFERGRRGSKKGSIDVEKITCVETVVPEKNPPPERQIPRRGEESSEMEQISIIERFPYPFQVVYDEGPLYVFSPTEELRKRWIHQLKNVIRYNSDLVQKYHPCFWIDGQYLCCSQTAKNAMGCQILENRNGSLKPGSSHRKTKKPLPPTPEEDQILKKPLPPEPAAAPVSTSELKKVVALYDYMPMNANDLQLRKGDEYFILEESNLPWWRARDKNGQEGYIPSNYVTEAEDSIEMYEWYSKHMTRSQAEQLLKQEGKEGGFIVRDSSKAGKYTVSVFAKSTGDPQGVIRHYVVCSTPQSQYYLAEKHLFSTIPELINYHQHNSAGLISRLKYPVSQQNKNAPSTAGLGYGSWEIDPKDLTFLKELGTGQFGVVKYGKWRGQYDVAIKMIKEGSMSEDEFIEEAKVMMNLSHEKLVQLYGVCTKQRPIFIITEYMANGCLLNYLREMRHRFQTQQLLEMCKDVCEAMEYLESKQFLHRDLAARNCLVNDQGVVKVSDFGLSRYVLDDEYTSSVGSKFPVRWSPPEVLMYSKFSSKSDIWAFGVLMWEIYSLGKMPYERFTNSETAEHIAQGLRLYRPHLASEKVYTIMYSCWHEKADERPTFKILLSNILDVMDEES

The assay has as its target T1, WT BTK protein (Homo sapiens, UniProt Q06187).
T1 construct: measured for intracellular BTK protein levels by Western blotting; endogenous in cells; host or cells: TMD-8 or RAMOS cells
Description: BTK protein degradation assay (Western blotting), WT BTK. The format is cell-based. The note with it: concentration range accounting for 50% degradation of WT BTK protein, TMD-8 or RAMOS cells, 24 hours. Put shortly:
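BTK levels were read by Western blotting (GAPDH and β-actin normalisers) in RIPA lysates of TMD-8 cells exposed to compounds for 24 h at 1×10^6 cells/mL. Results scored in ranges of the concentration producing 50% loss of WT BTK.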
Consider `Cc1cccc(C)c1Nc1nn(C)c2nc(Nc3ccc(C4CN(CC5CN(c6ccc7c(c6)C(=O)N(C6CCC(=O)NC6=O)C7=O)C5)C4)cc3)ncc12` (stereo not shown) [Compound 182, 5-(3-((3-(4-((3-((2,6-Dimethylphenyl)amino)-1-methyl-1H-pyrazolo[3,4-d]pyrimidin-6-yl)amino)phenyl)azetidin-1-yl)methyl)azetidin-1-yl)-2-(2,6-dioxopiperidin-3-yl)isoindoline-1,3-dione], for which the DC50 was in the range of 0.1 to 10 nM.
As for `Cc1cccc(C)c1Nc1nn(C)c2nc(Nc3ccc4c(c3)CN(CC3CN(C(=O)COc5ccc6c(c5)C(=O)N(C5CCC(=O)NC5=O)C6=O)C3)CC4)ncc12` (stereo not shown) [Compound 49, 5-(2-(3-((7-((3-((2,6-Dimethylphenyl)amino)-1-methyl-1H-pyrazolo[3,4-d]pyrimidin-6-yl)amino)-3,4-dihydroisoquinolin-2 (1H)-yl)methyl)azetidin-1-yl)-2-oxoethoxy)-2-(2,6-dioxopiperidin-3-yl)isoindoline-1,3-dione], the DC50 lay in the range of 10 to 1000 nM.
Next, `Cc1cccc(C)c1Nc1nn(C)c2nc(Nc3ccc4c(c3)CN(CC3CCN(C(=O)Nc5ccc6c(c5)CN(C5CCC(=O)NC5=O)C6=O)CC3)CC4)ncc12` (stereo not shown) [Compound 92, 4-((7-((3-((2,6-Dimethylphenyl)amino)-1-methyl-1H-pyrazolo[3,4-d]pyrimidin-6-yl)amino)-3,4-dihydroisoquinolin-2 (1H)-yl)methyl)-N-(2-(2,6-dioxopiperidin-3-yl)-1-oxoisoindolin-5-yl)piperidine-1-carboxamide]: 0.1 to 10 nM; `Cc1cccc(C)c1Nc1nn(C)c2nc(Nc3ccc4c(c3)CN(CC3CCN(C(=O)COc5ccc6nnn(C7CCC(=O)NC7=O)c(=O)c6c5)CC3)CC4)ncc12` (stereo not shown) [Compound 48, 3-(6-(2-(4-((7-((3-((2,6-Dimethylphenyl)amino)-1-methyl-1H-pyrazolo[3,4-d]pyrimidin-6-yl)amino)-3,4-dihydroisoquinolin-2 (1H)-yl)methyl)piperidin-1-yl)-2-oxoethoxy)-4-oxobenzo[d][1,2,3]triazin-3 (4H)-yl)piperidin-2,6-one]: 0.1 to 10 nM; `Cc1cccc(C)c1Nc1nn(C)c2nc(Nc3ccc4c(c3)CN(C(=O)CN3CCN(c5ccc6c(c5)C(=O)N(C5CCC(=O)NC5=O)C6=O)CC3)CC4)ncc12` (stereo not shown) [Compound 93, 5-(4-(2-(7-((3-((2,6-dimethylphenyl)amino)-1-methyl-1H-pyrazolo [3,4-d]pyrimidin-6-yl)amino)-3,4-dihydroisoquinolin-2 (1H)-yl)-2-oxoethyl)piperazin-1-yl)-2-(2,6-dioxopiperidin-3-yl)isoindoline-1,3-dione]: 10 to 1000 nM.
`Cc1cccc(C)c1Nc1nn(C)c2nc(Nc3ccc(N4CCN(CC5CCN(c6ccc7c(c6)C(=O)N(C6CCC(=O)NC6=O)C7=O)CC5)CC4)nn3)ncc12` (stereo not shown) [Compound 268, 5-(4-((4-(6-((3-((2,6-dimethylphenyl)amino)-1-methyl-1H-pyrazolo[3,4-d]pyrimidin-6-yl)amino)pyridazin-3-yl)piperazin-1-yl)methyl)piperidin-1-yl)-2-(2,6-dioxopiperidin-3-yl)isoindoline-1,3-dione]: the DC50 lay within 0.1 to 10 nM.
As for `Cc1cccc(C)c1Nc1nn(C)c2nc(Nc3ccc4c(c3)CN(C3CN(C[C@@H]5[C@H]6CN(c7ccc8c(c7)C(=O)N(C7CCC(=O)NC7=O)C8=O)C[C@@H]56)C3)CC4)ncc12` (stereo partly drawn) [Compound 153, 5-((1R,5S,6S)-6-((3-(7-((3-((2,6-Dimethylphenyl)amino)-1-methyl-1H-pyrazolo[3,4-d]pyrimidin-6-yl)amino)-3,4-dihydroisoquinolin-2 (1H)-yl)azetidin-1-yl)methyl)-3-azabicyclo[3.1.0]hexan-3-yl)-2-(2,6-dioxopiperidin-3-yl)isoindoline-1,3-dione], the DC50 fell in the range of 0.1 to 10 nM.
As for `Cc1cccc(C)c1Nc1nn(C)c2nc(Nc3ccc4c(c3)CN(C(=O)C3CCN(c5ccc6c(=O)n(C7CCC(=O)NC7=O)nnc6c5)CC3)CC4)ncc12` (stereo not shown) [Compound 69, 3-(7-(4-(7-((3-((2,6-Dimethylphenyl)amino)-1-methyl-1H-pyrazolo[3,4-d]pyrimidin-6-yl)amino)-1,2,3,4-tetrahydroisoquinoline-2-carbonyl)piperidin-1-yl)-4-oxobenzo[d][1,2,3]triazin-3 (4H)-yl)piperidin-2,6-one], the DC50 lay in the range of 10 to 1000 nM.
For `Cc1cccc(C)c1Nc1nn(C)c2nc(Nc3ccc4c(c3)CCN(CC3CCN(c5ccc6c(c5)C(=O)N(C5CCC(=O)NC5=O)C6=O)CC3)C4)ncc12` (stereo not shown) [Compound 172, 5-(4-((6-((3-((2,6-Dimethylphenyl)amino)-1-methyl-1H-pyrazolo[3,4-d]pyrimidin-6-yl)amino)-3,4-dihydroisoquinolin-2 (1H)-yl)methyl)piperidin-1-yl)-2-(2,6-dioxopiperidin-3-yl)isoindoline-1,3-dione], the DC50 is 0.1 to 10 nM.
Next, `Cc1cccc(C)c1Nc1nn(C)c2nc(Nc3ccc4c(c3)CN(CC3CCN(C(=O)CNc5ccc6c(c5)C(=O)N(C5CCC(=O)NC5=O)C6=O)CC3)CC4)ncc12` (stereo not shown) [Compound 36, 5-((2-(4-((7-((3-((2,6-Dimethylphenyl)amino)-1-methyl-1H-pyrazolo[3,4-d]pyrimidin-6-yl)amino)-3,4-dihydroisoquinolin-2 (1H)-yl)methyl)piperidin-1-yl)-2-oxoethyl)amino)-2-(2,6-dioxopiperidin-3-yl)isoindoline-1,3-dione]: 0.1 to 10 nM.
Next, `Cc1cccc(C)c1Nc1nn(C)c2nc(Nc3ccc(N4CCN(C[C@@H]5CCCN(c6ccc7c(c6)C(=O)N(C6CCC(=O)NC6=O)C7=O)C5)CC4)nc3)ncc12` (stereo partly drawn) [Compound 161, 5-((S)-3-((4-(5-((3-((2,6-Dimethylphenyl)amino)-1-methyl-1H-pyrazolo[3,4-d]pyrimidin-6-yl)amino)pyridin-2-yl)piperazin-1-yl)methyl)piperidin-1-yl)-2-(2,6-dioxopiperidin-3-yl)isoindoline-1,3-dione]: 0.1 to 10 nM; `COc1ccc(Nc2nn(C)c3nc(Nc4ccc5c(c4)CN(CC4CCN(c6ccc7c(c6)C(=O)N(C6CCC(=O)NC6=O)C7=O)CC4)CC5)ncc23)c(C)c1` (stereo not shown) [Compound 118, 2-(2,6-Dioxopiperidin-3-yl)-5-(4-((7-((3-((4-methoxy-2-methylphenyl)amino)-1-methyl-1H-pyrazolo[3,4-d]pyrimidin-6-yl)amino)-3,4-dihydroisoquinolin-2 (1H)-yl)methyl)piperidin-1-yl)isoindoline-1,3-dione]: 1000 to 10000 nM; `Cc1cccc(C)c1Nc1nn(C)c2nc(Nc3ccc(C4CCN(C(=O)C5(F)CCN(c6cc7c(cc6F)C(=O)N(C6CCC(=O)NC6=O)C7=O)CC5)CC4)cc3)ncc12` (stereo not shown) [Compound 254, 5-(4-(4-(4-((3-((2,6-dimethylphenyl)amino)-1-methyl-1H-pyrazolo[3,4-d]pyrimidin-6-yl)amino)phenyl)piperidine-1-carbonyl)-4-fluoropiperidin-1-yl)-2-(2,6-dioxopiperidin-3-yl)-6-fluoroisoindoline-1,3-dione]: 10 to 1000 nM.
As for `Cc1cccc(C)c1Nc1nn(C)c2nc(Nc3ccc4c(c3)CN(CC3CCN(CC(=O)Nc5ccc6c(c5)CN(C5CCC(=O)NC5=O)C6=O)CC3)CC4)ncc12` (stereo not shown) [Compound 91, 2-(4-((7-((3-((2,6-Dimethylphenyl)amino)-1-methyl-1H-pyrazolo[3,4-d]pyrimidin-6-yl)amino)-3,4-dihydroisoquinolin-2 (1H)-yl)methyl)piperidin-1-yl)-N-(2-(2,6-dioxopiperidin-3-yl)-1-oxoisoindolin-5-yl)acetamide], the DC50 fell in the range of 0.1 to 10 nM.
Turning to `Cc1cccc(C)c1Nc1nn(C)c2nc(Nc3ccc(N4CCN(C[C@@H]5CCN(c6ccc7c(c6)C(=O)N(C6CCC(=O)NC6=O)C7=O)C5)CC4)nc3)ncc12` (stereo partly drawn) [Compound 155, 5-((S)-3-((4-(5-((3-((2,6-dimethylphenyl)amino)-1-methyl-1H-pyrazolo[3,4-d]pyrimidin-6-yl)amino)pyridin-2-yl)piperazin-1-yl)methyl)pyrrolidin-1-yl)-2-(2,6-dioxopiperidin-3-yl)isoindoline-1,3-dione], the DC50 fell in the range of 0.1 to 10 nM.
As for `Cc1cccc(C)c1Nc1nn(C)c2nc(Nc3ccc4c(c3)CN(C(=O)COc3ccc5c(c3)CN(C3CCC(=O)NC3=O)C5=O)CC4)ncc12` (stereo not shown) [Compound 105, 3-(5-(2-(7-((3-((2,6-Dimethylphenyl)amino)-1-methyl-1H-pyrazolo[3,4-d]pyrimidin-6-yl)amino)-3,4-dihydroisoquinolin-2 (1H)-yl)-2-oxoethoxy)-1-oxoisoindolin-2-yl)piperidin-2,6-one], the DC50 lay within 0.1 to 10 nM.
`Cc1cccc(C)c1Nc1nn(C)c2nc(Nc3ccc4c(c3)CCN(CC3CCN(C(=O)CNc5ccc6c(c5)C(=O)N(C5CCC(=O)NC5=O)C6=O)CC3)C4)ncc12` (stereo not shown) [Compound 110, 5-((2-(4-((6-((3-((2,6-Dimethylphenyl)amino)-1-methyl-1H-pyrazolo[3,4-d]pyrimidin-6-yl)amino)-3,4-dihydroisoquinolin-2 (1H)-yl)methyl)piperidin-1-yl)-2-oxoethyl)amino)-2-(2,6-dioxopiperidin-3-yl)isoindoline-1,3-dione]: the DC50 was in the range of 0.1 to 10 nM.
With `Cc1cccc(C)c1Nc1nn(C)c2nc(Nc3ccc4c(c3)CN(CC3CCN(C5=CC(=O)N(C6CCC(=O)NC6=O)C5=O)CC3)CC4)ncc12` (stereo not shown) [Compound 201, 3-(3-(4-((7-((3-((2,6-dimethylphenyl)amino)-1-methyl-1H-pyrazolo[3,4-d]pyrimidin-6-yl)amino)-3,4-dihydroisoquinolin-2 (1H)-yl)methyl)piperidin-1-yl)-2,5-dioxo-2,5-dihydro-1H-pyrrol-1-yl)piperidin-2,6-one], the half-maximal degradation concentration (DC50) lay in the range of 0.1 to 10 nM.
Take `Cc1cccc(C)c1Nc1nn(C)c2nc(Nc3ccc4c(c3)CN(C3CCN(C[C@@H]5CCN(c6ccc7c(c6)C(=O)N(C6CCC(=O)NC6=O)C7=O)C5)CC3)CC4)ncc12` (stereo partly drawn) [Compound 143, 5-((S)-3-((4-(7-((3-((2,6-dimethylphenyl)amino)-1-methyl-1H-pyrazolo[3,4-d]pyrimidin-6-yl)amino)-3,4-dihydroisoquinolin-2 (1H)-yl)piperidin-1-yl)methyl)pyrrolidin-1-yl)-2-(2,6-dioxopiperidin-3-yl)isoindoline-1,3-dione]: the DC50 was 0.1 to 10 nM.
